Results on eight compounds are retold here after PubChem BioAssay (NCI).

Some test systems named below: RXF 393 renal; HCC-2998 colon; EKVX NSCLC; MDA-MB-435; M14 melanoma; OVCAR-5 ovarian; MALME-3M melanoma; T-47D breast; MCF7 breast; HOP-62 NSCLC; SNB-19 CNS; CCRF-CEM leukemia; 786-0 renal; TK-10 renal; MDA-MB-231 breast; HL-60(TB) leukemia; SW-620 colon; MDA-N; LOX IMVI melanoma; K-562 leukemia.
What all share (test): NCI tumour cell line growth inhibition, 48 h

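Growth conditions: 96-well plates. Treatment: test compound, 48 hours, 5 concentrations. Analysis: linear interpolation between bracketing concentrations; unreached endpoints set to highest concentration. At the TGI there is no net growth.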

As for `COc1ccc2c(c1)CC[C@@H]1[C@@H]2CC[C@]2(C)[C@@H](O)/C(=C/c3ccncc3)C[C@@H]12`, the TGI turned out to be 17.9 µM in the test with RXF 393 renal; 23.6 µM in the test on HCC-2998 colon; 70.6 µM in the test with EKVX NSCLC; 27.3 µM with MDA-MB-435; 30.4 µM in the test on M14 melanoma; 30.7 µM in the test with OVCAR-5 ovarian. The TGI was determined as 29.9 µM in the test with MALME-3M melanoma; 28.9 µM with T-47D breast; 30.2 µM in the test on MCF7 breast; 37.3 µM in the test with HOP-62 NSCLC; 51.8 µM in the test with SNB-19 CNS; 81 µM in the test on CCRF-CEM leukemia. The TGI in the test with 786-0 renal was determined as 31.7 µM; in the test with TK-10 renal it was 34 µM; with MDA-MB-231 breast it was 32.6 µM; in the test with HL-60(TB) leukemia, 39.2 µM; in the test on SW-620 colon, 24.8 µM; in the test on MDA-N it was 33.2 µM.

`CCOC(=O)CCc1c(C)[nH]c2c(C)c3c([nH]c4ccc(Cl)cc43)c(C)c2c1=O`: the TGI was 6.76 µM in the test with RXF 393 renal; 30.5 µM in the test on HCC-2998 colon; 37.6 µM with EKVX NSCLC; more than 100 µM with MDA-MB-435; 23.3 µM in the test with LOX IMVI melanoma; 18.5 µM in the test on M14 melanoma. For the same compound, the TGI in the test on OVCAR-5 ovarian is 19.1 µM; in the test on MALME-3M melanoma, 37.1 µM; with T-47D breast, 54.3 µM; in the test with MCF7 breast it was 37.7 µM; in the test on HOP-62 NSCLC, 48.4 µM; with SNB-19 CNS it was more than 100 µM. Besides, the TGI in the test with CCRF-CEM leukemia is more than 100 µM; with 786-0 renal it was 20.5 µM; in the test on TK-10 renal, 37.2 µM; in the test with MDA-MB-231 breast, 34.2 µM; in the test on HL-60(TB) leukemia it was 22.3 µM; with SW-620 colon it was more than 100 µM. In addition, in the test on MDA-N, the TGI was more than 100 µM.

In the case of `CCOC(=O)CCC(NC(=O)c1ccc(Oc2nc3ccccc3nc2C(=O)OCC)cc1)C(=O)OCC` (stereo not given), the TGI with HCC-2998 colon, in the test on EKVX NSCLC, in the test with MDA-MB-435, in the test on LOX IMVI melanoma, in the test on M14 melanoma and in the test with OVCAR-5 ovarian was more than 100 µM in each case. The TGI with T-47D breast, in the test on MCF7 breast, in the test on HOP-62 NSCLC, with SNB-19 CNS, with CCRF-CEM leukemia and in the test on 786-0 renal was more than 100 µM in each case. For the same compound, the TGI in the test with TK-10 renal was more than 100 µM; in the test with MDA-MB-231 breast, 95.9 µM; in the test on HL-60(TB) leukemia, more than 100 µM; with SW-620 colon, more than 100 µM; in the test on MDA-N it was more than 100 µM.

Turning to `CCCCOc1ccc(S(=O)(=O)/N=C(\NN)Nc2ccc(Cl)cc2)cc1`, the TGI in the test on RXF 393 renal was 36.2 µM; with EKVX NSCLC, more than 100 µM; in the test on LOX IMVI melanoma it was 35.6 µM; with M14 melanoma it was 56.9 µM; with OVCAR-5 ovarian, 52.9 µM; with MALME-3M melanoma, 86.3 µM. Also, the TGI was 46.2 µM in the test with T-47D breast; more than 100 µM in the test on MCF7 breast; 38.5 µM with HOP-62 NSCLC; more than 100 µM in the test on SNB-19 CNS; 47.6 µM with CCRF-CEM leukemia; 31 µM in the test on 786-0 renal. The TGI is more than 100 µM with TK-10 renal; more than 100 µM in the test on K-562 leukemia; 46.3 µM in the test on MDA-MB-231 breast; more than 100 µM with HL-60(TB) leukemia; 82.2 µM in the test on SW-620 colon; more than 100 µM with MDA-N.

In the case of `Cc1cc(Br)cc(C)c1NC(=O)C(=O)C1C(=O)C(CC2C(=O)c3ccccc3C2=O)C(=O)CC1(C)C` (stereo not given), the TGI in the test on RXF 393 renal, with HCC-2998 colon, in the test with EKVX NSCLC, in the test with MDA-MB-435, in the test on LOX IMVI melanoma and in the test with M14 melanoma was more than 100 µM in each case. Besides, the TGI was more than 100 µM in the test on OVCAR-5 ovarian; more than 100 µM in the test with MCF7 breast; more than 100 µM in the test on HOP-62 NSCLC; more than 100 µM with SNB-19 CNS; 95.7 µM with CCRF-CEM leukemia; more than 100 µM with 786-0 renal. The TGI in the test on TK-10 renal, in the test with MDA-MB-231 breast, with HL-60(TB) leukemia, with SW-620 colon and with MDA-N was more than 100 µM in each case.

For `NC(=O)C(=CN1CC(=O)NC1=S)C(N)=O`, the TGI in the test on RXF 393 renal, with HCC-2998 colon, with EKVX NSCLC, in the test on MDA-MB-435, with LOX IMVI melanoma and with M14 melanoma was more than 100 µM throughout. Further, the TGI with OVCAR-5 ovarian, in the test with T-47D breast, with MCF7 breast, with HOP-62 NSCLC, with SNB-19 CNS and with 786-0 renal was more than 100 µM in each case. The TGI in the test on TK-10 renal, in the test with MDA-MB-231 breast, in the test on HL-60(TB) leukemia, in the test with SW-620 colon and in the test with MDA-N was more than 100 µM each time.

Consider `NCCc1ccc2c(c1)C(=O)c1c(O)ccc(O)c1C2=O`, for which the TGI is more than 100 µM in the test on RXF 393 renal; more than 100 µM with HCC-2998 colon; 6.73 µM in the test with EKVX NSCLC; more than 100 µM with MDA-MB-435; more than 100 µM in the test with LOX IMVI melanoma; more than 100 µM with M14 melanoma. For the same compound, the TGI in the test with OVCAR-5 ovarian is more than 87 µM; in the test on MALME-3M melanoma it was 4.75 µM; in the test on MCF7 breast, more than 100 µM; in the test on HOP-62 NSCLC, 13.4 µM; with SNB-19 CNS, 29.6 µM; with CCRF-CEM leukemia it was more than 100 µM. In addition, the TGI in the test with 786-0 renal was 8.59 µM; in the test on TK-10 renal, more than 100 µM; in the test with K-562 leukemia, more than 64.2 µM; with MDA-MB-231 breast, more than 27.8 µM; in the test with HL-60(TB) leukemia it was 5.34 µM; in the test with SW-620 colon, more than 100 µM. In the test with MDA-N, the TGI was more than 100 µM.

As to `O=C(Nc1ccc(F)cc1)c1cc2ccc(O)cc2oc1=Nc1ccccc1F`, the TGI is more than 100 µM in the test with HCC-2998 colon; 40.8 µM in the test with EKVX NSCLC; more than 100 µM with MDA-MB-435; 49.6 µM in the test with LOX IMVI melanoma; more than 100 µM in the test on OVCAR-5 ovarian; more than 100 µM with MALME-3M melanoma. In addition, the TGI in the test with T-47D breast, in the test with MCF7 breast, in the test on HOP-62 NSCLC, with CCRF-CEM leukemia, in the test on 786-0 renal and in the test with K-562 leukemia was more than 100 µM each time. Moreover, the TGI in the test on HL-60(TB) leukemia was 69.5 µM; with SW-620 colon it was more than 100 µM; with MDA-N it was more than 100 µM.
